Legend:
[1] = system: DU-145; assay: Growth inhibition of human DU145 after 48 hrs by SRB assay; format: functional; settings: DU-145, 48 h
[2] = Inhibition of calf brain tubulin polymerization; set-up: species or system Bos taurus
[3] = system: NCI-H460; assay: Growth inhibition of human NCI-H460 after 48 hrs by SRB assay; format: functional; settings: NCI-H460, 48 h
[4] = system: SK-OV-3; assay: Growth inhibition of human SK-OV-3 after 48 hrs by SRB assay; format: functional; settings: SK-OV-3, 48 h

Row | Compound | GI50 [1] [nM] | IC50 [2] [nM] | GI50 [3] [nM] | GI50 [4] [nM]
1 | COc1ccc(C(=O)C2=CCCCc3c2cc(OC)c(OC)c3OC)cc1O | > 10000 | > 40000 | > 10000 | 
2 | COc1ccc(C(=O)C2=CCCc3c2cc(OC)c(OC)c3OC)c(O)c1O | 3400 | > 40000 | 2800 | 1400
3 | COc1ccc2c(c1)CCCC=C2c1cc(OC)c(OC)c(OC)c1 | 27 | 1400 | 51 | 52
4 | COc1ccc2c(c1O)CCCC(c1cc(OC)c(OC)c(OC)c1)=C2 | 440 | > 40000 | 1200 | 270
5 | COc1ccc(C(=O)C2=CCCCc3c2cc(OC)c(OC)c3OC)c(O)c1O | > 10000 | > 40000 | > 10000 | 
6 | COc1ccc2c(c1)CCCC(c1cc(OC)c(OC)c(OC)c1)=C2 | 550 | > 40000 | 470 | 440
7 | COc1ccc(C(=O)C2=CCCc3c2cc(OC)c(OC)c3OC)cc1O | 3100 | 24000 | 6000 | 
8 | COc1cc2c(cc1O)C(=O)C1c3cc(OC)c(OC)c(OC)c3CCC21 (stereo not given) | > 10000 | > 40000 | > 10000 | 
9 | COc1ccc(CC2CCCCc3c2cc(OC)c(OC)c3OC)c(O)c1O (stereo not given) | > 10000 | 7400 | > 10000 | 
10 | COc1ccc2c(c1O)CCCC=C2c1cc(OC)c(OC)c(OC)c1 | 0.0032 | 1700 | 0.028 | < 0.03
11 | COc1ccc(/C=C\c2cc(OC)c(OC)c(OC)c2)cc1O [COMBRETASTATIN A4] | 2 |  | 2 | 0.13
12 | COc1ccc(/C=C\c2cc(OC)c(OC)c(OC)c2)c(O)c1O [COMBRETASTATIN A-1] | 510 |  | 2200 | 

— ChEMBL document CHEMBL1140060, “Design, synthesis and biological evaluation of dihydronaphthalene and benzosuberene analogs of the combretastatins as inhibitors of tubulin polymerization in cancer chemotherapy” (Bioorg Med Chem, 2008)
